Assay results: patent publication US20150105252A1, “SUBSTITUTED PYRAZOLES AS HERBICIDES” (E I DU PONT DE NEMOURS AND COMPANY, priority 2013, published 2015)

What was measured:
morningglory [1] = experiment: Test A preemergence; assay type: in vivo, Ipomoea spp.; conditions: preemergence
Outline: (§1)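 Pre- and postemergence greenhouse test; loam+sand; cpd in non-phytotox. solvent/surfactant; post at 1–2 leaf, 2–10 cm; visual score ~10 d, 0 = none, 100 = complete control.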

wheat = experiment: Test A preemergence; assay type: in vivo, Triticum aestivum; conditions: preemergence
Outline: as §1

corn = experiment: Test A preemergence; assay type: in vivo, Zea mays; conditions: preemergence
Outline: as §1

blackgrass [2] = experiment: Test C preemergence; assay type: in vivo, Alopecurus myosuroides; conditions: for Blackgrass plant response rating: preemergence
Outline: (§2)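 Seeds were sown in a loam soil–sand blend and sprayed preemergence with compounds formulated in a non-phytotoxic solvent mixture containing surfactant. Postemergence plants, grown in peat/vermiculite medium to 2–18 cm (1- to 4-leaf stage), received the same formulation. After 13 to 15 days in a greenhouse, injury was rated visually against controls (0 = no effect, 100 = complete control).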

ryegrass, Italian = experiment: Test C preemergence; assay type: in vivo, Lolium multiflorum; conditions: for Ryegrass, Italian plant response rating: preemergence
Outline: as §2

johnsongrass = experiment: Test C preemergence; assay type: in vivo, Sorghum halepense; conditions: for Johnsongrass plant response rating: preemergence
Outline: as §2

morningglory [3] = experiment: Test C preemergence; assay type: in vivo, Ipomoea coccinea; conditions: for Morningglory plant response rating: preemergence
Outline: as §2

pigweed [4] = experiment: Test C preemergence; assay type: in vivo, Amaranthus retroflexus; conditions: for Pigweed plant response rating: preemergence
Outline: as §2

barnyardgrass = experiment: Test C preemergence; assay type: in vivo, Echinochloa crus-galli; conditions: for Barnyardgrass plant response rating: preemergence
Outline: as §2

blackgrass [5] = experiment: Test C postemergence; assay type: in vivo, Alopecurus myosuroides
Outline: as §2

morningglory [6] = experiment: Test C postemergence; assay type: in vivo, Ipomoea coccinea
Outline: as §2

pigweed [7] = experiment: Test C postemergence; assay type: in vivo, Amaranthus retroflexus
Outline: as §2

ragweed = experiment: Test C postemergence; assay type: in vivo, Ambrosia elation
Outline: as §2

[8] = 125 g ai/ha, visual injury, 0 to 100 scale, approx. 10 days
[9] = 500 g ai/ha, visual injury after approx. 10 days, 0 to 100 scale (0 no effect, 100 complete control)
[10] = 31 g ai/ha, visual rating, scale 0 to 100 (0 no effect, 100 complete control), 13 to 15 days
[11] = 62 g ai/ha, scale 0 to 100 (0 no effect, 100 complete control), 13 to 15 days
[12] = 125 g ai/ha, scale 0 to 100, 0 is no effect, 100 is complete control
[13] = Postemergence, 31 g ai/ha, visually evaluated after 13 to 15 days
[14] = postemergence, 62 g ai/ha, scale 0 to 100
[15] = postemergence, 250 g ai/ha, scale 0 to 100 (0 no effect, 100 complete control)
[16] = postemergence, 125 g ai/ha, scale 0 to 100, 0 no effect, 100 complete control

CCc1cc(C(=O)NCC(F)(F)F)nn1Cc1cc(C(F)(F)F)nn1C [Compound 108, 5-ethyl-1-[[1-methyl-3-(trifluoromethyl)-1H-pyrazole-5-yl]methyl]-N-(2,2,2-trifluoroethyl)-1H-pyrazole-3-carboxamide]
60: Ryegrass, Italian plant response rating (ryegrass, Italian; [11])
85: Plant response rating, Ragweed (ragweed; [15])
35: Johnsongrass plant response rating (johnsongrass; [10])
100: Morningglory plant response rating (morningglory [1]; [8]) | Morningglory plant response rating (morningglory [1]; [9]) | Wheat plant response rating (wheat; [9]) | Plant response rating (scale of 0 to 100), Blackgrass (blackgrass [2]; Preemergence, 250 g ai/ha) | Blackgrass plant response rating (blackgrass [2]; [10]) | Blackgrass plant response rating (blackgrass [2]; [11]) | Blackgrass plant response rating (blackgrass [2]; [12]) | Plant response rating (scale of 0 to 100), Ryegrass, Italian (ryegrass, Italian; Preemergence, 250 g ai/ha) | Plant response rating (scale of 0 to 100), Johnsongrass (johnsongrass; Preemergence, 250 g ai/ha) | Johnsongrass plant response rating (johnsongrass; [12]) | Plant response rating (scale of 0 to 100), Morningglory (morningglory [3]; Preemergence, 250 g ai/ha) | Morningglory plant response rating (morningglory [3]; [11]) | Morningglory plant response rating (morningglory [3]; [12]) | Plant response rating (scale of 0 to 100), Pigweed (pigweed [4]; Preemergence, 250 g ai/ha) | Pigweed plant response rating (pigweed [4]; [10]) | Pigweed plant response rating (pigweed [4]; [11]) | Pigweed plant response rating (pigweed [4]; [12]) | Plant response rating (scale of 0 to 100), Barnyardgrass (barnyardgrass; Preemergence, 250 g ai/ha) | Barnyardgrass plant response rating (barnyardgrass; [11]) | Barnyardgrass plant response rating (barnyardgrass; [12])
90: Corn plant response rating (corn; [9]) | Ryegrass, Italian plant response rating (ryegrass, Italian; [12]) | Johnsongrass plant response rating (johnsongrass; [11]) | Plant response rating, Morningglory (morningglory [6]; [15]) | Plant response rating, Pigweed (pigweed [7]; [15])
40: Plant response rating (scale of 0 to 100 where 0 is no effect and 100 is complete control), Pigweed (pigweed [7]; [13])
80: Plant response rating, Morningglory (morningglory [6]; [16])
45: Pigweed plant response rating (pigweed [7]; [14])
5: Blackgrass plant response rating (blackgrass [5]; [14]) | Plant response rating, Blackgrass (blackgrass [5]; [16])
30: Corn plant response rating (corn; [8]) | Ryegrass, Italian plant response rating (ryegrass, Italian; [10]) | Plant response rating, Blackgrass (blackgrass [5]; [15])
0: Plant response rating (scale of 0 to 100 where 0 is no effect and 100 is complete control), Blackgrass (blackgrass [5]; [13])
10: Wheat plant response rating (wheat; [8]) | Plant response rating (scale of 0 to 100 where 0 is no effect and 100 is complete control), Ragweed (ragweed; [13])
98: Morningglory plant response rating (morningglory [3]; [10])
50: Barnyardgrass plant response rating (barnyardgrass; 31 g ai/ha, scale 0 to 100 (0 no effect, 100 complete control), 13 to 15 days) | Plant response rating (scale of 0 to 100 where 0 is no effect and 100 is complete control), Morningglory (morningglory [6]; [13]) | Morningglory plant response rating (morningglory [6]; [14]) | Plant response rating, Pigweed (pigweed [7]; [16]) | Ragweed plant response rating (ragweed; [14]) | Plant response rating, Ragweed (ragweed; [16])
